# US8354419B2, “Benzimidazole analogues for the treatment or prevention of flavivirus infections” (Vertex Pharmaceuticals Incorporated, priority 2009, dated 2013)
# Test system: HCV (Ib) RNA replication
# Assay: Cell-based luciferase reporter HCV (1b) RNA replication assay (replicon cell lines Huh-7 5.2 and ET)
# Parameters: species or system Hepatitis C virus
# Details: HCV 1b genotype replicon, luciferase readout, 4 days incubation; read-out: EC50_1b
# Method in brief: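 Compounds were tested at eleven concentrations in duplicate over 4 days at 37 °C, 5% CO2. The cells were luciferase-reporter HCV 1b replicon lines 5.2 (NS5A adaptive mutation) or ET (NS4B mutation). Luminescence of lysates was measured, and IC50s were derived by nonlinear curve fitting.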
row,Structure (SMILES),EC50 [nM]
1,COC(=O)N[C@H](C(=O)N1CC2CC2C1c1nc2cc(-c3ccc(-c4ccc5[nH]c(C6C7CC7CN6C(=O)[C@@H](NC(=O)OC)C(C)C)nc5c4)cc3)ccc2[nH]1)C(C)C (stereo partly shown) [Compound 244],≤ 5

# Same assay, conditions: Hepatitis C virus, Huh-7, 96 h, HCV 1b genotype replicon, luciferase readout, 4 days incubation; read-out: EC50_1b
row,Structure (SMILES),EC50 [nM]
1,O=C1CCC(C(=O)N2CCC[C@H]2c2nc3cc(C#Cc4ccc5nc([C@@H]6CCCN6C(=O)[C@@H]6CCC(=O)N6)[nH]c5c4)ccc3[nH]2)N1 (stereo partly shown) [Compound 67],5 to 5000
2,COC(=O)N[C@H](C(=O)N1CCC[C@H]1c1nc2cc(-c3ccc(-c4ccc5nc([C@@H]6CCCN6C(=O)[C@@H](NC(=O)OC)C(C)C)[nH]c5c4)cc3[N+](=O)[O-])ccc2[nH]1)C(C)C [Compound 141],≤ 5
3,COC(=O)N[C@H](C(=O)N1CCC[C@H]1c1nc2ccc(N3C[C@H](C)N(c4ccc5nc([C@@H]6CCCN6C(=O)[C@@H](NC(=O)OC)C(C)C)[nH]c5c4)C[C@H]3C)cc2[nH]1)C(C)C [Compound 258],≤ 5
4,COC(=O)N[C@H](C(=O)N1[C@@H](C)CC[C@H]1c1nc2cc(-c3ccc(-c4ccc5[nH]c([C@@H]6CC[C@H](C)N6C(=O)[C@@H](NC(=O)OC)C(C)C)nc5c4)c4c3OCO4)ccc2[nH]1)C(C)C [Compound 318],≤ 5
5,COC(=O)N[C@H](C(=O)N1C[C@H](C)C[C@H]1c1nc2cc(-c3ccc(-c4ccc5[nH]c([C@@H]6C[C@@H](C)CN6C(=O)[C@@H](NC(=O)OC)C(C)C)nc5c4)c(C)c3)ccc2[nH]1)C(C)C [Compound 261],≤ 5
6,CC(=O)N[C@H](C(=O)N1CCC[C@H]1c1nc2cc(C#Cc3ccc4[nH]c([C@@H]5CCCN5C(=O)[C@H](NC(C)=O)C(C)C)nc4c3)ccc2[nH]1)C(C)C [Compound 97],5 to 5000
7,CC(=O)NC1(C(=O)N2CCC[C@H]2c2nc3cc(C#Cc4ccc5[nH]c([C@@H]6CCCN6C(=O)C6(NC(C)=O)CC6)nc5c4)ccc3[nH]2)CC1 [Compound 110],> 5000
8,C(#Cc1ccc2[nH]c([C@@H]3CCCN3CC3CCCCC3)nc2c1)c1ccc2[nH]c([C@@H]3CCCN3CC3CCCCC3)nc2c1 [Compound 136],5 to 5000
9,O=C(CC1CCOCC1)N1CCC[C@H]1c1nc2cc(C#Cc3ccc4[nH]c([C@@H]5CCCN5C(=O)CC5CCOCC5)nc4c3)ccc2[nH]1 [Compound 106],5 to 5000
10,COC(=O)N[C@@H](C(=O)N1CC[C@H]1c1nc2cc(C#Cc3ccc4[nH]c([C@@H]5CCN5C(=O)[C@H](NC(=O)OC)C(C)C)nc4c3)ccc2[nH]1)C(C)C [Compound 73],≤ 5
11,COC(=O)N[C@H](C(=O)N1[C@@H](C)CC[C@H]1c1nc2ccc(-c3ccc(-c4ccc5nc([C@@H]6CC[C@H](C)N6C(=O)[C@@H](NC(=O)OC)C(C)C)[nH]c5c4)c4nsnc34)cc2[nH]1)C(C)C [Compound 317],≤ 5
12,COC(=O)N[C@H](C(=O)N1CCC[C@H]1c1nc2cc(-c3nc(C)c(-c4ccc5[nH]c([C@@H]6CCCN6C(=O)[C@@H](NC(=O)OC)C(C)C)nc5c4)s3)ccc2[nH]1)C(C)C [Compound 214],≤ 5
13,COC(=O)N[C@H](C(=O)N1CCC[C@H]1c1nc2cc(C#Cc3ccc4nc([C@@H]5CCCN5C(=O)[C@H](O)C(C)C)[nH]c4c3)ccc2[nH]1)C(C)C [Compound 78],≤ 5
14,COC(=O)N[C@H](C(=O)N1CCC[C@H]1c1nc2cc(CCc3ccc4[nH]c([C@@H]5CCCN5C(=O)[C@H](NC(=O)OC)C(C)C)nc4c3)ccc2[nH]1)C(C)C [Compound 116],≤ 5
15,COC(=O)N[C@H](C(=O)N1CCC[C@H]1c1nc2cc(-c3ccc(-c4ccc5[nH]c([C@@H]6CCCN6C(=O)[C@@H](NC(=O)OC)C(C)C)nc5c4)c(S(C)(=O)=O)c3)ccc2[nH]1)C(C)C [Compound 150],≤ 5
16,COC(=O)N[C@H](C(=O)N1[C@@H](C)CC[C@H]1c1nc2cc(-c3csc4c(-c5ccc6[nH]c([C@@H]7CC[C@H](C)N7C(=O)[C@@H](NC(=O)OC)C(C)C)nc6c5)csc34)ccc2[nH]1)C(C)C [Compound 319],≤ 5
17,COC(=O)N[C@H](C(=O)N1CCC[C@H]1c1nc2cc(C)c(-c3ccc(-c4cc5[nH]c([C@@H]6CCCN6C(=O)[C@@H](NC(=O)OC)C(C)C)nc5cc4C)cc3)cc2[nH]1)C(C)C [Compound 144],≤ 5
18,COC(=O)N[C@H](C(=O)N1CCC[C@H]1c1nc2cc(N3CCN(c4ccc5[nH]c([C@@H]6CCCN6C(=O)[C@@H](NC(=O)OC)C(C)C)nc5c4)[C@@H](C)C3)ccc2[nH]1)C(C)C [Compound 329],≤ 5
19,COC(=O)N[C@H](C(=O)N1C[C@@H](OC)C[C@H]1c1nc2cc(-c3ccc(-c4ccc5[nH]c([C@@H]6C[C@H](OC)CN6C(=O)[C@@H](NC(=O)OC)C(C)C)nc5c4)cc3)ccc2[nH]1)C(C)C [Compound 222],≤ 5
20,CC(C)[C@H](O)C(=O)N1CCC[C@H]1c1nc2cc(-c3ccc(-c4ccc5nc([C@@H]6CCCN6C(=O)[C@@H](O)C(C)C)[nH]c5c4)c4c3OCO4)ccc2[nH]1 [Compound 209],5 to 5000

row,Structure (SMILES),EC50 [nM]
1,COC(=O)N(C)[C@H](C(=O)N1C[C@@H](C)C[C@H]1c1nc2cc(-c3ccc(-c4ccc5[nH]c([C@@H]6C[C@H](C)CN6C(=O)[C@@H](Nc6ncccn6)C(C)C)nc5c4)cc3)ccc2[nH]1)C(C)C [Compound 289],≤ 5
2,COC(=O)N[C@H](C(=O)N1CCC[C@H]1c1nc2cc(C#CC#Cc3ccc4nc([C@@H]5CCCN5C(=O)[C@H](NC(=O)OC)C(C)C)[nH]c4c3)ccc2[nH]1)C(C)C [Compound 74],≤ 5
3,C(#Cc1ccc2[nH]c([C@@H]3CCCN3CCC3CCOCC3)nc2c1)c1ccc2[nH]c([C@@H]3CCCN3CCC3CCOCC3)nc2c1 [Compound 138],5 to 5000
4,c1cc(-c2ccc3[nH]c([C@@H]4CCCN4CCC4CCOCC4)nc3c2)ccc1-c1ccc2[nH]c(C3CCCN3CCC3CCOCC3)nc2c1 (stereo partly shown) [Compound 192],5 to 5000
5,COC(=O)N[C@H](C(=O)N1CCC[C@H]1c1nc2cc(C#Cc3ccc(-c4ccc5[nH]c([C@@H]6CCCN6C(=O)[C@@H](NC(=O)OC)C(C)C)nc5c4)cc3)ccc2[nH]1)C(C)C [Compound 147],≤ 5
6,COC(=O)N[C@H](C(=O)N1CCC[C@H]1c1nc2cc(-c3ccc(-c4ccc5[nH]c([C@@H]6CCCN6C(=O)[C@@H](NC(=O)OC)[C@@H](C)OC)nc5c4)cc3)ccc2[nH]1)[C@@H](C)OC [Compound 170],≤ 5
7,COC(=O)N[C@H](C(=O)N1C(C)CC[C@H]1c1nc2cc(-c3ccc(-c4ccc5[nH]c([C@@H]6CCC(C)N6C(=O)[C@H](C(C)C)N(C)C(=O)OC)nc5c4)cc3)ccc2[nH]1)C(C)C (stereo partly shown) [Compound 301],≤ 5
8,COC(=O)N[C@H](C(=O)N1C[C@@H](C)C[C@H]1c1nc2cc(-c3cc(C)c(-c4ccc5[nH]c([C@@H]6C[C@H](C)CN6C(=O)[C@H](C(C)C)N(C)C(=O)OC)nc5c4)cc3C)ccc2[nH]1)C(C)C [Compound 276],≤ 5
9,O=C1CCCCCN1CC(=O)N1CCC[C@H]1c1nc2cc(C#Cc3ccc4[nH]c([C@@H]5CCCN5C(=O)CN5CCCCCC5=O)nc4c3)ccc2[nH]1 [Compound 80],> 5000
10,Cn1c(C2CCCN2C(=O)OC(C)(C)C)nc2ccc(-c3ccc(-c4ccc5[nH]c(C6CCCN6C(=O)OC(C)(C)C)nc5c4)cc3)cc21 (stereo not shown) [Compound 256],5 to 5000
11,COC(=O)NC(C(=O)N1CCC[C@H]1c1nc2cc(-c3ccc(-c4ccc5[nH]c([C@@H]6CCCN6C(=O)C(NC(=O)OC)C(C)(C)F)nc5c4)cc3)ccc2[nH]1)C(C)(C)F (stereo partly shown) [Compound 180],≤ 5
12,O=C1CC[C@H](C(=O)N2CCC[C@H]2c2nc3cc(C#Cc4ccc5[nH]c([C@@H]6CCCN6C(=O)[C@H]6CCC(=O)N6)nc5c4)ccc3[nH]2)N1 [Compound 86],> 5000
13,Cn1c([C@@H]2CCCN2C(=O)OC(C)(C)C)nc2ccc(-c3ccc(-c4ccc5nc([C@@H]6CCCN6C(=O)OC(C)(C)C)n(C)c5c4)cc3)cc21 [Compound 257],5 to 5000
14,CC(C)(NC(=O)OCc1ccccc1)C(=O)N1CCC[C@H]1c1nc2cc(C#Cc3ccc4[nH]c([C@@H]5CCCN5C(=O)C(C)(C)NC(=O)OCc5ccccc5)nc4c3)ccc2[nH]1 [Compound 88],5 to 5000
15,COC(=O)N[C@H](C(=O)N1CCC[C@H]1c1nc2cc(-c3ccc(-c4ccc5c(c4)nc([C@@H]4CCCN4C(=O)[C@@H](NC(=O)OC)C(C)C)n5C)cc3)ccc2n1C)C(C)C [Compound 231],> 5000
16,COC(=O)N[C@H](C(=O)N1CC[C@@H](O)[C@H]1c1nc2ccc(-c3ccc(-c4ccc5nc([C@@H]6[C@H](O)CCN6C(=O)[C@@H](NC(=O)OC)C(C)C)[nH]c5c4)cc3)cc2[nH]1)C(C)C [Compound 235],≤ 5
17,O=C(OCc1ccccc1)N1COC[C@@H]1C(=O)N1CCC[C@H]1c1nc2cc(C#Cc3ccc4[nH]c([C@@H]5CCCN5C(=O)[C@H]5COCN5C(=O)OCc5ccccc5)nc4c3)ccc2[nH]1 [Compound 119],≤ 5
18,COC(=O)N[C@H](C(=O)N1C[C@@H](C)C[C@H]1c1nc2cc(-c3ccc(-c4ccc5[nH]c([C@@H]6C[C@H](C)CN6C(=O)[C@@H](NC(=O)OC)C(C)C)nc5c4)c(C)c3)ccc2[nH]1)C(C)C [Compound 237],≤ 5
19,"COC(=O)N[C@H](C(=O)N1CCC[C@H]1c1nc2cc(-c3ccc(-c4ccc5[nH]c([C@@H]6CCCN6C(=O)[C@@H](NC(=O)OC)C(C)C)nc5c4)c(Cl)c3)ccc2[nH]1)C(C)C [Compound 10, ((S)-1-{(S)-2-[5-(2-Chloro-4-{2-[(S)-1-((S)-2-methoxycarbonylamino-3-methyl-butyryl)-pyrrolidin-2-yl]-1H-benzoimidazol-5-yl}-phenyl)-1H-benzoimidazol-2-yl]-pyrrolidine-1-carbonyl}-2-methyl-propyl)-carbamic acid methyl ester]",≤ 5
